This note sets out measurements from US8846682B2, “Compound suitable for the treatment of synucleopathies” (Neuropore Therapies, Inc., priority 2009, dated 2014).

Assay [1] deals with neuronal cells infected with LV-SYN. Put plainly: FLIPR assay of Ca++ levels (Flou-4) in neuronal cells infected with LV-SYN. The class given is cell-based.
Assay [2] shares this test system. Put plainly: neurite outgrowth (MAP2 antibody) in neuronal cells expressing high levels of SYN. It counts as cell-based. To be noted: 0.1 μM; FIG. 6.
Protocol: For the neuronal cell based assays, the neuroblastoma line B103 will be used. […] To infect the neural cells with LV vectors, multiples of infections (MOI) of 0.1, 1 or 5 (based on TU/ml on 293T cells) will be used. After 4-5 days in vitro, the % of transgene-expressing cells will be analyzed. The B103 cells will be maintained at 37° C., 5% CO2 in Dulbecco's modified eagle medium (DMEM, high glucose) supplemented with 10% fetal bovine serum (Irvine Scientific, Irvine, Calif.) and 1% v/v penicillin/streptomycin. For analysis of SYN aggregation cell homogenates will be analyzed by immunoblot with antibodies against SYN and in coverslips by immunocytochemistry. For evaluation of neurite outgrowth coverslips will be immunostained with an antibody against MAP2 and analyzed with a digital Olympus microscope and the Image Quant System.

For the compound `CCCCNC(=O)C(Cc1c[nH]c2ccccc12)NC(=O)c1cnc(N2CCNCC2)s1` (stereo not drawn) [NPT200-5], the “improvement of Ca++ levels” value in assay [1] (0.1 μM concentration) was found to be 50%. For the same compound, in assay [1] (24 hrs treatment, LV-SYN cells showed 25-30% higher Ca++ than empty vector control, FIG. 7), the “levels of Ca++ after treatment” value was “back to baseline”. In assay [2], the “effect on neurite length extension and cellular morphology” value was “ameliorated the deleterious effects on neurite length extension and improved cellular morphology”.
